Assay results as given in ChEMBL document CHEMBL4715823, “Homogeneous Assay for Target Engagement Utilizing Bioluminescent Thermal Shift” (ACS Med Chem Lett, 2018).
Activity calls are given as the source filed them. The calls are words filed in the database; no cut-off is given here.

Assays:
[1] = target: Mitogen-activated protein kinase 14 (Homo sapiens) (UniProt Q16539); details: HeLa, dose 50.0 µM
[2] = target: Mitogen-activated protein kinase 14 (Homo sapiens) (UniProt Q16539); details: HeLa, dose 50.0 µM; remark: listed apart in the source

Chain of Mitogen-activated protein kinase 14 (Homo sapiens) (Q16539 whole entry): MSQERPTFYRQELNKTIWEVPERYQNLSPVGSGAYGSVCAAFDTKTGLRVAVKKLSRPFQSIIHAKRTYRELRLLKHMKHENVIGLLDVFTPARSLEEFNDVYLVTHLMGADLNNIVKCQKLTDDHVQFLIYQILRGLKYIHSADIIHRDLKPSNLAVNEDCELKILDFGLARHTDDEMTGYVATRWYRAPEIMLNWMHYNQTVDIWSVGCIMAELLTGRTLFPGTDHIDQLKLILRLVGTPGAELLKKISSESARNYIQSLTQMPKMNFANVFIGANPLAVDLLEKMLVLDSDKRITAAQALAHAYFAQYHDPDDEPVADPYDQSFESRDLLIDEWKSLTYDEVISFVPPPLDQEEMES

Compound	ΔTm [1]	Tm [2]
Oc1ccc(-c2nc(-c3ccc(F)cc3)c(-c3ccncc3)[nH]2)cc1	7.8 °C	
C/C(O)=C(\C#N)C(=O)Nc1cc(Br)ccc1Br	3.43 °C	
Cc1ncc(-c2ccnc(Nc3ccc(S(C)(=O)=O)cc3)n2)n1C(C)C		inactive
CC(C)(C)n1nc(-c2ccc(Cl)cc2)c2c(N)ncnc21	1.17 °C	
